Broadly, the solubility is the concentration that dissolves in the medium under given conditions.

Like-named read-outs stand apart in the source and are kept apart here.

The nature of data set [1]: Solubility to water calculated from UV-visible absorbance. The conditions noted are these: for Solubility (%): saturated solution in water, diluted with standard buffer pH 6.86 (25° C.), absorbance at maximum absorption wavelength 300-550 nm, calibration curve.
Method: (§1) The measurement of the absorbance used an ultraviolet-visible spectrometer (UV-1700, manufactured by Shimadzu Corp.). Solutions of known concentrations of a sample were prepared by using a standard buffer solution (manufactured by Fujifilm Wako Pure Chemical Corp., a neutral phosphate salt pH standard solution, pH: 6.86 (25° C.)), and the absorbances at the maximum absorption wavelength in the wavelength region of 300 nm to 550 nm were measured by the ultraviolet-visible spectrometer. A calibration curve was fabricated from the obtained absorbances and the concentrations. Then, a saturated solution of the sample was prepared by using water and was diluted by using the standard buffer solution. The absorbance at the maximum absorption wavelength was measured and the solubility (%) was calculated from the calibration curve. The density of the solution was assumed to be 1.0 g/cm^3 and the solubility (mol/L) was calculated.
For data set [2] the following is noted: pH 6.86.
Method: as §1
Setting [3] is: solubility to water, calculated from solubility (%), density of the solution assumed to be 1.0 g/cm^3.
Where [4] appears, read: water, thermodynamic from solid.

In the case of `O=C1c2cccc(S(=O)(=O)[O-])c2C(=O)c2cccc(S(=O)(=O)[O-])c21.[Na+].[Na+]` [9,10-anthraquinone-1,5-disulfonic acid (Na), reference compound], the “Solubility (%)” value in data set [1] is given as 2.7%. In addition, in data set [1] (setting [3]), the “solubility” value was 70 mM. As to `O=C1c2cc(OCCOCCOCCO)c(O)c(OCCOCCOCCO)c2C(=O)c2cc(OCCOCCOCCO)c(O)c(OCCOCCOCCO)c21` [formula (3-5)], the “Solubility (%)” value in data set [1] is recorded as 41.8%. In addition, the solubility in data set [1] (setting [4]) is 500 mM.

Consider `O=C1c2cccc(S(=O)(=O)[O-])c2C(=O)c2c1cccc2S(=O)(=O)[O-].[K+].[K+]` [9,10-anthraquinone-1,8-disulfonic acid (K), reference compound], for which, in data set [1], the “Solubility (%)” value is 0.2%. In addition, the “solubility” value in data set [1] (setting [3]) was 4 mM. Turning to `O=C1c2ccccc2C(=O)c2c1cc(OCCCS(=O)(=O)[O-])c(OCCCS(=O)(=O)[O-])c2OCCCS(=O)(=O)[O-].[Na+].[Na+].[Na+]` [formula (3-3)], the “Solubility (%)” value in data set [1] is 35.3%. For the same molecule, the solubility in data set [1] (setting [4]) is 510 mM. As for `O=C1c2ccccc2C(=O)c2cc(S(=O)(=O)[O-])ccc21.[Na+]` [9,10-anthraquinone-2-sulfonic acid (Na)], in data set [2], the “Solubility (%)” value worked out at 0.7%. For the molecule `O=C1C(SCCCS(=O)(=O)[O-])=C(SCCCS(=O)(=O)[O-])C(=O)c2ccccc21.[K+].[K+]` [formula (2-1)], in data set [1], the “Solubility (%)” value is 36.6%. For the same molecule, the solubility in data set [1] (setting [4]) was 670 mM. Turning to `O=C([O-])COc1cc2c(c(OCC(=O)[O-])c1OCC(=O)[O-])C(=O)c1cc(OCC(=O)[O-])c(OCC(=O)[O-])c(OCC(=O)[O-])c1C2=O.[K+].[K+].[K+].[K+].[K+].[K+]` [formula (3-2)], the “Solubility (%)” value in data set [1] was 17.7%. Further, the solubility in data set [1] (setting [4]) was 200 mM.
